{"source": "patent US20050250801A1", "about": "“Method of treating cancer with azaspirane compositions” (priority 2003, published 2005)", "key": {"HUVEC": {"tested_on": "HUVEC", "assay": "HUVEC cord formation assay (Matrigel)", "format": "cell-based", "settings": "Homo sapiens, 24 hour incubation, read-out: IC50 Concentration, Cord Formation", "description": "Matrigel (60 μl of 10 mg/ml; Collaborative Lab # 35423) was placed in each well of an ice-cold 96-well plate. The plate is allowed to sit at room temperature for 15 minutes then incubated at 37° C. for 30 minutes to permit the matrigel to polymerize. In the mean time, HUVEC are prepared in EGM-2 (Clonetic# CC3162) at a concentration of 2×10^5 cells/ml. Test solutions of Compound I are prepared at 2× the desired concentration (5 concentration levels) in the same medium. The cells (500 μl) and 2× Compound 1 (500 μl) solution are mixed and 200 μl of this suspension are placed in duplicate on the polymerized matrigel. After a 24 hour incubation, triplicate pictures are taken for each concentration using a Bioquant Image Analysis system. Drug effect (IC50) is assessed compared to untreated controls by measuring the length of cords formed and number of junctions, and is reported in Table 8."}, "[1]": {"tested_on": "chorioallantoic membrane (CAM)", "assay": "Anti-angiogenesis CAM assay", "format": "in vivo, White Leghorn eggs", "settings": "48 hour exposure, ten eggs", "description": "The dosing was effected by pipetting 40 μl of the indicated solution onto a 13 mm round Thermanox® coverslip and allowing it to air dry. After the material appeared dry, the coverslip was placed onto the chorioallantoic membrane (CAM) of each egg insuring contact of the dried test article with the CAM. After dosing, the eggs were returned to the incubator for approximately 48 hours. Following the 48 hour exposure period, the eggs were removed from the incubator, observed for viability, and the exposed area under the coverslip was examined for loss of vasculature."}, "HUVEC cells": {"tested_on": "HUVEC cells", "assay": "Inhibition of HUVEC proliferation (WST-1, Example 2)", "format": "cell-based", "settings": "Homo sapiens"}, "IGROV1": {"tested_on": "IGROV1", "assay": "NCI in vitro SRB assay, Ovarian Cancer", "format": "cell-based", "description": "(§1) An in vitro assay which tested the ability of N,N,-diethyl-8,8-dipropyl-2-azaspiro[4,5]decane-2-propanamine dimaleate (Compound 1) to inhibit the growth of known cancer cell lines was performed by the National Cancer Institute in accordance with standard procedures. See: Lin, Z. X., Hoult, J. R., and Raman, A. Sulphorhodamine B assay for measuring proliferation of a pigmented melanocyte cell line and its application to the evaluation of crude drugs used in the treatment of vitiligo. J Ethnopharmacol. 66: 141-150, 1999. Briefly, selected tumor cell lines were cultured in media containing five different concentrations of Compound 1. After 48 hours of continuous exposure, a sulforhodamine B (SRB) assay was used to estimate cell viability or growth via optical measurements.\n(§2) From the measurements, the following values were determined: 1) the concentration of Compound 1 at which a tumor cell growth inhibition of 50% (relative to control) occurs (GI50), 2) the concentration of Compound 1 at which no growth occurs (total growth inhibition, TGI), and 3) the concentration of Compound 1 at which the […] (LC 50). […] FIG. 6 illustrates, graphically, tumor cell growth as a function of Compound 1 concentration of the scanned tumor cell lines."}, "OVCAR-8": {"tested_on": "OVCAR-8", "assay": "NCI in vitro SRB assay, Ovarian Cancer", "format": "cell-based", "description": "as §1, §2"}, "SK-OV-3": {"tested_on": "SK-OV-3", "assay": "NCI in vitro SRB assay, Ovarian Cancer", "format": "cell-based", "description": "as §1, §2"}, "OVCAR-4": {"tested_on": "OVCAR-4", "assay": "NCI in vitro SRB assay, Ovarian Cancer", "format": "cell-based", "description": "as §1, §2"}, "OVCAR-3": {"tested_on": "OVCAR-3", "assay": "NCI in vitro SRB assay, Ovarian Cancer", "format": "cell-based", "description": "as §1, §2"}, "CaCo-2 cells": {"tested_on": "CaCo-2 cells", "assay": "Inhibition of CaCo-2 colon carcinoma cell proliferation (WST-1, Example 1)", "format": "cell-based", "settings": "Homo sapiens, 24 hours incubation", "description": "The effect of N,N,-diethyl-8,8-dipropyl-2-azaspiro[4,5]decane-2-propanamine dimaleate (Compound 1) on proliferation of human colon carcinoma cells T84 and CaCo-2 was evaluated in the following manner. Cell proliferation was measured by WST-1 dye conversion to Formazan assay using the proliferation kit from BioVision, CA. The procedure used was essentially as described in the manufacture's instructions. Briefly, cells were grown for 7 days until they formed semi-confluent monolayers. On day 7, cells were trypsinized and resuspended in 96-well plates at a concentration of approximately 40,000 cells/well and allowed to grow for 24 hours at 37° C.\nSubsequently, fresh media containing increasing concentrations of Compound 1, as indicated in the FIG. 1, were added and assay plates were further incubated for an additional period of 24 hours. A solution of 5 μl of WST-1 dye per well was added and plates were read after 4 hours at 440 and 600 nm using an ELISA plate reader. The absorbance at 440 minus that at 600 nm is directly proportion to the number of proliferating cells. All samples were measured in triplicate and results were expressed as an average of three determinations."}, "DU-145": {"tested_on": "DU-145", "assay": "NCI in vitro SRB assay, Prostate Cancer", "format": "cell-based", "settings": "for GI50: Homo sapiens", "description": "as §1, §2"}, "PC-3": {"tested_on": "PC-3", "assay": "NCI in vitro SRB assay, Prostate Cancer", "format": "cell-based", "settings": "for CC50 / GI50: Homo sapiens", "description": "as §1, §2"}}, "note": "Like-named read-outs stand apart in the source and are kept apart here.", "data": [{"smiles": "CCCC1(CCC)CCC2(CCN(CCCN(CC)CC)C2)CC1.O=C(O)/C=C\\C(=O)O.O=C(O)/C=C\\C(=O)O", "note": "[Compound 1, N,N,-diethyl-8,8-dipropyl-2-azaspiro[4,5]decane-2-propanamine dimaleate]", "values": [{"measurement": "IC50", "setting": "HUVEC", "result": 2630, "unit": "nM"}, {"measurement": "Dead Eggs", "setting": "[1]; Dose per egg 25 μg (0.625 mg/ml)", "result": 0}, {"measurement": "Dead Eggs", "setting": "[1]; Dose per egg 50 μg (1.25 mg/ml)", "result": 0}, {"measurement": "Dead Eggs", "setting": "[1]; Dose per egg 100 μg", "result": 4}, {"measurement": "Dead Eggs", "setting": "[1]; Dose per egg 200 μg (5 mg/ml)", "result": 3}, {"measurement": "Dead Eggs", "setting": "[1]; Dose per egg 400 μg (10 mg/ml)", "result": 7}, {"measurement": "IC50", "setting": "HUVEC cells", "result": "1250 to 2500", "unit": "nM"}, {"measurement": "CC50", "setting": "IGROV1; Homo sapiens, IGROV-1, read-out: Log10 LC50 (converted)", "result": "> 100", "unit": "µM"}, {"measurement": "GI50", "setting": "IGROV1; Homo sapiens, IGROV-1, IGROV1, read-out: Log10 GI50 (converted)", "result": 2450, "unit": "nM"}, {"measurement": "Log10 TGI", "setting": "IGROV1; IGROV1", "result": ">−4.00"}, {"measurement": "CC50", "setting": "OVCAR-8; Homo sapiens, OVCAR-8, read-out: Log10 LC50 (converted)", "result": "> 100", "unit": "µM"}, {"measurement": "GI50", "setting": "OVCAR-8; Homo sapiens, OVCAR-8, read-out: Log10 GI50 (converted)", "result": 2690, "unit": "nM"}, {"measurement": "Log10 TGI", "setting": "OVCAR-8; OVCAR-8", "result": "−4.92"}, {"measurement": "CC50", "setting": "SK-OV-3; Homo sapiens, SK-OV-3, read-out: Log10 LC50 (converted)", "result": 58.9, "unit": "µM"}, {"measurement": "GI50", "setting": "SK-OV-3; Homo sapiens, SK-OV-3, read-out: Log10 GI50 (converted)", "result": 4.57, "unit": "µM"}, {"measurement": "Log10 TGI", "setting": "SK-OV-3; SK-OV-3", "result": "−5.10"}, {"measurement": "CC50", "setting": "OVCAR-4; Homo sapiens, OVCAR-4, read-out: Log10 LC50 (converted)", "result": 6.61, "unit": "µM"}, {"measurement": "GI50", "setting": "OVCAR-4; Homo sapiens, OVCAR-4, read-out: Log10 GI50 (converted)", "result": 1620, "unit": "nM"}, {"measurement": "Log10 TGI", "setting": "OVCAR-4; OVCAR-4", "result": "−5.49"}, {"measurement": "Log10 TGI", "setting": "OVCAR-3", "result": "−5.21"}, {"measurement": "GI50", "setting": "OVCAR-3; Homo sapiens, read-out: Log10 GI50 (converted)", "result": 2340, "unit": "nM"}, {"measurement": "IC50", "setting": "CaCo-2 cells", "result": "625 to 1250", "unit": "nM"}, {"measurement": "Log10 TGI", "setting": "DU-145", "result": "−5.51"}, {"measurement": "TGI", "setting": "DU-145", "result": 3.09, "unit": "µM"}, {"measurement": "GI50", "setting": "DU-145; read-out: GI50", "result": 1700, "unit": "nM"}, {"measurement": "GI50", "setting": "DU-145; read-out: Log10 GI50 (converted)", "result": 1700, "unit": "nM"}, {"measurement": "Mean Optical Densities", "setting": "DU-145; Log10 conc -4.0 Moles/L", "result": "−0.032"}, {"measurement": "Percent Growth", "setting": "DU-145; Log10 conc -4.0 Moles/L", "result": "−100", "unit": "%"}, {"measurement": "Mean Optical Densities", "setting": "DU-145; Log10 conc -5.0 Moles/L", "result": 0.005}, {"measurement": "Percent Growth", "setting": "DU-145; Log10 conc -5.0 Moles/L", "result": "−98", "unit": "%"}, {"measurement": "Mean Optical Densities", "setting": "DU-145; Log10 conc -6.0 Moles/L", "result": 0.733}, {"measurement": "Percent Growth", "setting": "DU-145; Log10 conc -6.0 Moles/L", "result": 94, "unit": "%"}, {"measurement": "Mean Optical Densities", "setting": "DU-145; Log10 conc -7.0 Moles/L", "result": 0.766}, {"measurement": "Percent Growth", "setting": "DU-145; Log10 conc -7.0 Moles/L", "result": 101, "unit": "%"}, {"measurement": "Mean Optical Densities", "setting": "DU-145; Log10 conc -8.0 Moles/L", "result": 0.728}, {"measurement": "Percent Growth", "setting": "DU-145; Log10 conc -8.0 Moles/L", "result": 93, "unit": "%"}, {"measurement": "CC50", "setting": "PC-3; PC-3, read-out: LC50", "result": 6.68, "unit": "µM"}, {"measurement": "CC50", "setting": "PC-3; PC-3, read-out: Log10 LC50 (converted)", "result": 6.61, "unit": "µM"}, {"measurement": "GI50", "setting": "PC-3; PC-3, read-out: GI50", "result": 1710, "unit": "nM"}, {"measurement": "GI50", "setting": "PC-3; PC-3, read-out: Log10 GI50 (converted)", "result": 1700, "unit": "nM"}, {"measurement": "Log10 TGI", "setting": "PC-3; PC-3", "result": "−5.47"}, {"measurement": "TGI", "setting": "PC-3; PC-3", "result": 3.38, "unit": "µM"}, {"measurement": "Mean Optical Densities", "setting": "PC-3; PC-3, Log10 conc -4.0 Moles/L", "result": 0.037}, {"measurement": "Percent Growth", "setting": "PC-3; PC-3, Log10 conc -4.0 Moles/L", "result": "−90", "unit": "%"}, {"measurement": "Mean Optical Densities", "setting": "PC-3; PC-3, Log10 conc -5.0 Moles/L", "result": 0.073}, {"measurement": "Percent Growth", "setting": "PC-3; PC-3, Log10 conc -5.0 Moles/L", "result": "−80", "unit": "%"}, {"measurement": "Mean Optical Densities", "setting": "PC-3; PC-3, Log10 conc -6.0 Moles/L", "result": 1.953}, {"measurement": "Percent Growth", "setting": "PC-3; PC-3, Log10 conc -6.0 Moles/L", "result": 89, "unit": "%"}, {"measurement": "Mean Optical Densities", "setting": "PC-3; PC-3, Log10 conc -7.0 Moles/L", "result": 2.067}, {"measurement": "Percent Growth", "setting": "PC-3; PC-3, Log10 conc -7.0 Moles/L", "result": 96, "unit": "%"}, {"measurement": "Mean Optical Densities", "setting": "PC-3; PC-3, Log10 conc -8.0 Moles/L", "result": 2.116}, {"measurement": "Percent Growth", "setting": "PC-3; PC-3, Log10 conc -8.0 Moles/L", "result": 99, "unit": "%"}]}]}
